Here are results for eleven molecules from patent US20030225065A1, “Bis-arylsulfones” (priority 2002, published 2003).

Where a name gives a salt, the structure may show the parent alone.

Tested on in one series: not given
Assay: not given
Settings: not given
On to `CNc1cc(N2CCCNCC2)ccc1S(=O)(=O)c1cccc(F)c1` (as salt: HCl), for which the melting point – broadly, the temperature of the solid-liquid transition – lay in the range of 153 to 154 °C. `Nc1cc(N2CCCNCC2)ccc1S(=O)(=O)c1cccc(F)c1` (as salt: hydrochloride) [Example 2, 5-(1,4-diazepan-1-yl)-2-[(3-fluorophenyl)sulfonyl]phenylamine] registered a melting point of 106 to 108 °C. The same measure, in the same setting: the result for `Nc1cc(N2CCNCC2)ccc1S(=O)(=O)c1ccccc1` (as salt: salt) [Example 1, 2-(phenylsulfonyl)-5-(1-piperazinyl)phenylamine] reads 165 to 166 °C. Still for that read-out and setting: the result for `CCNc1cc(N2CCNCC2)ccc1S(=O)(=O)c1ccccc1` (as salt: salt) [Example 13, N-ethyl-2-(phenylsulfonyl)-5-(1-piperazinyl) phenylamine] reads 121 to 123 °C.

Take `Nc1cc(N2CCNCC2)ccc1S(=O)(=O)c1ccc(F)cc1` [Example 3, 2-[(4-fluorophenyl)sulfonyl]-5-(1-piperazinyl) phenylamine]: the melting point was 144 to 146 °C. As for `CN1CCN(c2ccc(S(=O)(=O)c3ccc(F)cc3)c(N)c2)CC1` [Example 4, 2-[(4-fluorophenyl)sulfonyl]-5-(4-methyl-1-piperazinyl) phenylamine], the melting point lay in the range of 85 to 89 °C. With `Cc1ccc(S(=O)(=O)c2ccc(N3CCNCC3)cc2N)cc1` [Example 5, 2-[(4-methylphenyl)sulfonyl]-5-(1-piperazinyl) phenylamine], the melting point fell in the range of 102 to 106 °C. The same measure, in the same setting: with `Cc1ccc(S(=O)(=O)c2ccc(N3CCN(C)CC3)cc2N)cc1` [Example 6, 2-[(4-methylphenyl)sulfonyl]-5-(4-methyl-1-piperazinyl) phenylamine] the figure was 148 to 151 °C; with `CN1CCN(c2ccc(S(=O)(=O)c3ccccc3)c(N)c2)CC1` [Example 7, 5-(4-methyl-1-piperazinyl)-2-(phenylsulfonyl) phenylamine], 90 to 93 °C; with `CN1CCN(c2ccc(S(=O)(=O)c3cccc(F)c3)c(N)c2)CC1` [Example 8, 2-[(3-fluorophenyl)sulfonyl]-5-(4-methyl-1-piperazinyl) phenylamine], 89 to 92 °C.

The target of the next series is T1, cloned human 5-HT6 receptor (Homo sapiens, UniProt P50406).
T1 construct: host or cells: HeLa cells (G-418 selection), membrane preparation
T1 sequence (P50406 whole entry): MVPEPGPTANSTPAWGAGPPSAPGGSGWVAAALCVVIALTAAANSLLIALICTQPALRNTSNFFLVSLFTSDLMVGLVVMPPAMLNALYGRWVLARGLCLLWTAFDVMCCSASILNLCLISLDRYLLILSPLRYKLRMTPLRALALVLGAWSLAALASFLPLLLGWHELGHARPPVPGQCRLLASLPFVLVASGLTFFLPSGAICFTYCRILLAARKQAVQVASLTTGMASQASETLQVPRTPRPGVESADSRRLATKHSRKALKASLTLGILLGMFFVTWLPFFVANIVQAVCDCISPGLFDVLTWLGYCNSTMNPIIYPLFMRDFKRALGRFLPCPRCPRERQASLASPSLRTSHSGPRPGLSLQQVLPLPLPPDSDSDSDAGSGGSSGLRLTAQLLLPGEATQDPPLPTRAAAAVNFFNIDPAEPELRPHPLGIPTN
Kind of series: 5-HT6 receptor binding assay ([3H]-LSD radioligand, SPA beads, Hela cell membranes). Particulars: IC50 converted to Ki by the Cheng-Prusoff equation. The method, then:
Harvested intact cells are washed once in cold phosphate-buffered saline. The cells are pelleted and resuspended in 100 ml of cold 50 mM Tris, 5 mM EDTA and 5 mM EGTA, pH 7.4. Homogenization is with a Vir Tishear generator, 4 cycles for 30 seconds each at setting 50. The homogenized cells are centrifuged at 700 RPM (1000×g) for 10 minutes and the supernatant is removed. […] The rehomogenized cells are then centrifuged at 700 RPM (1000×g) for 10 minutes and the supernatant is removed. […] The membrane pellet is resupended in 50-8-ml of assay buffer containing HEPES 20 mM, MgCl2 10 mM, NaCl 150 mM, EDTA 1 mM, pH 7.4 and stored frozen in aliqouts at −70° C.
The radioligand binding assay used [^3H]-lysergic acid diethylamide (LSD). The assay is carried out in Wallac 96-well sample plates by the addition of 11 μl of the test sample at the appropriate dilution (the assay employed 11 serial concentrations of samples run in duplicate), 11 μl of radioligand, and 178 μl of a washed mixture of WGA-coated SPA beads and membranes in binding buffer. The plates are shaken for about 5 minutes and then incubated at room temperature for 1 hour. The plates are then loaded into counting cassettes and counted in a Wallac MicroBeta Trilux scintillation counter.
Eleven serial dilutions of test compounds are distributed to assay plates using the PE/Cetus Pro/Pette pipetter. […]
In the case of `CCNc1cc(N2CCNCC2)ccc1S(=O)(=O)c1ccccc1` [Example 13, N-ethyl-2-(phenylsulfonyl)-5-(1-piperazinyl) phenylamine], the affinity, expressed as Ki, was 2.7 nM.
